From ChEMBL document CHEMBL3352178, “Antidepressant- and anxiolytic-like activity of 7-phenylpiperazinylalkyl-1,3-dimethyl-purine-2,6-dione derivatives with diversified 5-HT₁A receptor functional profile” (Bioorg Med Chem, 2015)
Calls of active or inactive are those of the source. The calls are words filed in the database; no cut-off is given here.

Key:
[1] = biological target: T1, 5-hydroxytryptamine receptor 1A (Rattus norvegicus, UniProt P19327); test: Displacement of [3H]-8-OH-DPAT from 5-HT1AR in rat hippocampus; format: tissue-based
T1 sequence (P19327 whole entry): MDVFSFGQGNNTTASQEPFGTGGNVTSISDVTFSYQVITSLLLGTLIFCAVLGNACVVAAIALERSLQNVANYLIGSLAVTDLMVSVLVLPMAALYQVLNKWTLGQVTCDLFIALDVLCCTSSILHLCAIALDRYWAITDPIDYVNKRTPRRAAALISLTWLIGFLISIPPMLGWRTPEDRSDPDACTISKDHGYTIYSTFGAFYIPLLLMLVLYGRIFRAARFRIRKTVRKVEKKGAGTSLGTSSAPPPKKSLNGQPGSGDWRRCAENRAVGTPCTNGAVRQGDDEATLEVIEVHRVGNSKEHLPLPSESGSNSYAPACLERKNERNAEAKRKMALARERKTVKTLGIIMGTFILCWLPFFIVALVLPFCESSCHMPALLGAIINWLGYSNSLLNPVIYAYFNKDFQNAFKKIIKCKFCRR

[2] = biological target: 5-hydroxytryptamine receptor 7 (Homo sapiens, UniProt P34969); test: Displacement of [3H]]-5-CT from human cloned 5-HT7R expressed in HEK293 cells; format: cell-based
[3] = biological target: 5-hydroxytryptamine receptor 2A (Rattus norvegicus, UniProt P14842); test: Displacement of [3H]-ketanserin from 5-HT2AR in rat cortex
[4] = biological target: 5-hydroxytryptamine receptor 6 (Homo sapiens, UniProt P50406); test: Displacement of [3H]LSD from human cloned 5-HT6R expressed in HEK293 cells; format: cell-based
D(2) dopamine receptor = D(2) dopamine receptor (Rattus norvegicus, UniProt P61169); test: Displacement of [3H]-spiperone from dopamine D2 receptor in rat striatum
Mus musculus [5] = test: Induction of hypothermia in mouse assessed as change in body temperature at 5 mg/kg, ip administered 30 mins before test and measured 30 mins post dose; format: functional, organism-based; design: dose 5 mg/kg
Mus musculus [6] = test: Anxiolytic-like activity in mouse assessed as increase in number of punished crossings at 2.5 mg/kg, ip dosed 60 mins before test by four plate test; format: functional; conditions: route intraperitoneal
Mus musculus [7] = test: Induction of hypothermia in mouse assessed as change in body temperature at 5 mg/kg, ip administered 30 mins before test and measured 120 mins post dose; format: functional, organism-based; design: dose 5 mg/kg
Mus musculus [8] = test: Anxiolytic-like activity in mouse assessed as increase in number of punished crossings at 2.5 mg/kg, ip dosed 60 mins before test in presence of 0.3 mg/kg, sc 5HT1A receptor antagonist WAY 100635 by four plate test; format: functional, organism-based
Mus musculus [9] = test: Antidepressant-like activity in mouse assessed as reduction in immobility time at 1.25 to 10 mg/kg, ip dosed 60 mins before test by forced swim test; format: functional, organism-based
Mus musculus [10] = test: Induction of hypothermia in mouse assessed as change in body temperature at 5 mg/kg, ip administered 30 mins before test and measured 90 mins post dose; format: functional, organism-based; design: dose 5 mg/kg
Mus musculus [11] = test: Induction of hypothermia in mouse assessed as change in body temperature at 10 mg/kg, ip administered 30 mins before test and measured 90 mins post dose; format: functional, organism-based; design: dose 10 mg/kg
Rattus norvegicus [12] = test: Induction of lower lip retraction in rat assessed as lower lip retraction scores at 10 mg/kg, ip dosed 15 mins before test; format: functional; conditions: route intraperitoneal
Mus musculus [13] = test: Induction of hypothermia in mouse assessed as change in body temperature at 10 mg/kg, ip administered 30 mins before test and measured 60 mins post dose in presence of 0.3 mg/kg, sc 5HT1A receptor antagonist WAY 100635; format: functional, organism-based
Mus musculus [14] = test: Effect on spontaneous locomotor activity in mouse at 2.5 mg/kg, ip; format: ADME, organism-based; design: dose 2.5 mg/kg, route intraperitoneal; conditions: in vivo
Rattus norvegicus [15] = test: Induction of lower lip retraction in rat assessed as lower lip retraction scores at 5 mg/kg, ip dosed 15 mins before test; format: functional; conditions: route intraperitoneal
Mus musculus [16] = test: Induction of hypothermia in mouse assessed as change in body temperature at 10 mg/kg, ip administered 30 mins before test and measured 30 mins post dose in presence of 0.3 mg/kg, sc 5HT1A receptor antagonist WAY 100635; format: functional, organism-based
Mus musculus [17] = test: Induction of hypothermia in mouse assessed as change in body temperature at 10 mg/kg, ip administered 30 mins before test and measured 120 mins post dose; format: functional, organism-based; design: dose 10 mg/kg
Mus musculus [18] = test: Induction of hypothermia in mouse assessed as change in body temperature at 10 mg/kg, ip administered 30 mins before test and measured 30 mins post dose; format: functional, organism-based; design: dose 10 mg/kg
Mus musculus [19] = test: Induction of hypothermia in mouse assessed as change in body temperature at 10 mg/kg, ip administered 30 mins before test and measured 60 mins post dose; format: functional, organism-based; design: dose 10 mg/kg
Mus musculus [20] = test: Induction of hypothermia in mouse assessed as change in body temperature at 5 mg/kg, ip administered 30 mins before test and measured 60 mins post dose; format: functional, organism-based; design: dose 5 mg/kg
Rattus norvegicus [21] = test: Inhibition of 8-OH-DPAT-induced lower lip retraction in rat assessed as lower lip retraction scores at 5 mg/kg, ip dosed 45 mins before 8-OH-DPAT; format: functional; conditions: route intraperitoneal
Rattus norvegicus [22] = test: Induction of lower lip retraction in rat assessed as lower lip retraction scores at 10 mg/kg, ip dosed 45 mins after 0.3 mg/kg, sc 5HT1A receptor antagonist WAY 100635; format: functional

Chain of 5-hydroxytryptamine receptor 2A (P14842 whole entry): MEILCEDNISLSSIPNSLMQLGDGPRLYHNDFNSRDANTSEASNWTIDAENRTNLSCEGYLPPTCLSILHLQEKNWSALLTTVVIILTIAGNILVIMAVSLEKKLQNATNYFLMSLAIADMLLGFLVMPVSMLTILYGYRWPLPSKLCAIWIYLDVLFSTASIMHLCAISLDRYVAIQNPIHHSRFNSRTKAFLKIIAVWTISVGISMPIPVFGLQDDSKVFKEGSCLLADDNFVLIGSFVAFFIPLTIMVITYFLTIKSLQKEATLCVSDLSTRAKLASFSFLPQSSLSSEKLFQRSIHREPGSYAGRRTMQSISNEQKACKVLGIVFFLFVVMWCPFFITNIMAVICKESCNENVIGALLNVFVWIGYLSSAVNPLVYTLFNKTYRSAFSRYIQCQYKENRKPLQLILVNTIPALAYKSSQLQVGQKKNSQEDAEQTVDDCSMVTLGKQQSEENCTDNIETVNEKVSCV
Chain of D(2) dopamine receptor (P61169 whole entry): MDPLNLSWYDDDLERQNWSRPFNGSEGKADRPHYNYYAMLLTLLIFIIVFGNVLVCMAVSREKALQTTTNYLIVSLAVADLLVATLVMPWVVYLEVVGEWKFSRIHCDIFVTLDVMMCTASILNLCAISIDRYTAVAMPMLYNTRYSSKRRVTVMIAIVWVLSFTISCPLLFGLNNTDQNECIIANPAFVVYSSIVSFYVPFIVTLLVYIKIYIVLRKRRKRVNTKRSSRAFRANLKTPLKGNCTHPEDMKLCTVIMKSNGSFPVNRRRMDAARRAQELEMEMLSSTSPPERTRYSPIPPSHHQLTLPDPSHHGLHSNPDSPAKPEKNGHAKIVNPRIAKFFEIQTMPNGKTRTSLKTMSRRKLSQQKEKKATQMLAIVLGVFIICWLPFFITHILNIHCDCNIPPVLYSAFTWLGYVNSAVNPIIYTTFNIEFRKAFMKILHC
Chain of 5-hydroxytryptamine receptor 7 (P34969 whole entry): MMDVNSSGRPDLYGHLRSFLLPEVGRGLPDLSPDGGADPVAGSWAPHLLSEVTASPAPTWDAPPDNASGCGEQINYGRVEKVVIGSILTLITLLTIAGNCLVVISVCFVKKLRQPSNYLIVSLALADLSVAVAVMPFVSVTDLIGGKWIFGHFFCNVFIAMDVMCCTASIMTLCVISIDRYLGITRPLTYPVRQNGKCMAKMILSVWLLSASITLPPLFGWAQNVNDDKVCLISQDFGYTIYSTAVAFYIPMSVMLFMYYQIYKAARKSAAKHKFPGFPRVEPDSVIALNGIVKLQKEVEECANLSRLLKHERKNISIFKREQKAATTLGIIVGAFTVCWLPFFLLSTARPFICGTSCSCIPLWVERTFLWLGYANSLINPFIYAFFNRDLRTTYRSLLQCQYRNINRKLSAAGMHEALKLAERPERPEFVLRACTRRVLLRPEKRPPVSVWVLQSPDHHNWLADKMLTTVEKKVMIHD
Chain of 5-hydroxytryptamine receptor 6 (P50406 whole entry): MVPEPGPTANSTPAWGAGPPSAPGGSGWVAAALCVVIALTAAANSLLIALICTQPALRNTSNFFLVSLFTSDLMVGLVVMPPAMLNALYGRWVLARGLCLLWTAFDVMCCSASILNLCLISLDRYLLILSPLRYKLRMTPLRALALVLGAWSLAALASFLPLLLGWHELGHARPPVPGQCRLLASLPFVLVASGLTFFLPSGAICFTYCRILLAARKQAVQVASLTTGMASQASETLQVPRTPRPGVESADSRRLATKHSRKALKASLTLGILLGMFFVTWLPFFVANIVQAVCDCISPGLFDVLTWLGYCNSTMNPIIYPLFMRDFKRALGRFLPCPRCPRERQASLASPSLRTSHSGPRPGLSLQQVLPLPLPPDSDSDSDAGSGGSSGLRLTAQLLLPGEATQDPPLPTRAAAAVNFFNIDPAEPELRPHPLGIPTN

| Ki [1] | Ki [2] | Ki [3] | Ki [4] | Ki (D(2) dopamine receptor) | Structure (SMILES) | also measured |
| --- | --- | --- | --- | --- | --- | --- |
| 0.023 µM | 1.15 µM | 0.507 µM | 14.2 µM | 1.01 µM | Cn1c(=O)c2c(ncn2CCCCN2CCN(c3ccccc3)CC2)n(C)c1=O |  |
| 0.011 µM | 0.346 µM | 0.308 µM | 10.3 µM | 0.356 µM | Cl.Cn1c(=O)c2c(ncn2CCCCCN2CCN(c3ccccc3)CC2)n(C)c1=O | deltaT (Mus musculus [5]): -1.4 °C; Activity (Mus musculus [6]): 50%; deltaT (Mus musculus [7]): 0.4 °C; Activity (Mus musculus [8]): inactive; Activity (Mus musculus [9]): inactive; deltaT (Mus musculus [10]): -0.1 °C; deltaT (Mus musculus [11]): -1.4 °C; Activity (Rattus norvegicus [12]): 2; deltaT (Mus musculus [13]): -0.9 °C; Activity (Mus musculus [14]): Non-toxic; Activity (Rattus norvegicus [15]): 0.4; deltaT (Mus musculus [16]): -0.2 °C; deltaT (Mus musculus [17]): -1.3 °C; deltaT (Mus musculus [18]): -0.9 °C; deltaT (Mus musculus [19]): -1.5 °C; deltaT (Mus musculus [20]): 1.1 °C; Activity (Rattus norvegicus [21]): 1.7; Activity (Rattus norvegicus [22]): 0.2 |
| 0.171 µM | 1.01 µM | 16.4 µM | 9.14 µM | 1.22 µM | Cn1c(=O)c2c(ncn2CCCCCN2CCc3ccccc3C2)n(C)c1=O |  |
| 0.239 µM | 0.629 µM | 22 µM | 11.7 µM | 7.82 µM | Cn1c(=O)c2c(ncn2CCCCN2CCc3ccccc3C2)n(C)c1=O |  |
| 0.105 µM | 0.179 µM | 0.46 µM | 1.9 µM | 0.073 µM | Cn1c(=O)c2c(ncn2CCCCN2CCN(c3ccc(Cl)c(Cl)c3)CC2)n(C)c1=O |  |
| 0.433 µM | 3.62 µM | 10.5 µM | 12.3 µM | 2.71 µM | Cn1c(=O)c2c(ncn2CCCN2CCc3ccccc3C2)n(C)c1=O |  |
| 0.571 µM | 1.43 µM | 0.092 µM | 20.1 µM | 1.09 µM | Cn1c(=O)c2c(ncn2CCCN2CCN(c3ccccc3)CC2)n(C)c1=O |  |
| 0.182 µM | 2.8 µM | 0.053 µM | 20.3 µM | 3.19 µM | Cn1c(=O)c2c(ncn2CCCN2CCN(c3cccc(Cl)c3)CC2)n(C)c1=O |  |
